# Measurements as given in patent US20260285924A1, “PEPTIDE THERAPEUTICS” (priority 2023, published 2026).
# Assays:
# [1] = test system: A-to-I RNA editing reporter (ADAR) in A375; assay: A-to-I PepTile (REPTILE) screen: A-to-I editing of dsRNA hairpin reporter by NGS; format: cell-based, human; settings: for % A-to-I editing (IFNα): IFNα 6000 U/ml for 48 hours; for % A-to-I editing (Basal): no treatment
# Source text: (§1) FIGS. 12A-12D. A-to-I PepTile screen. (A) Composition of A-to-I PepTile linrary screen, and schematic description of the lentiviral expression vector. (B) Experimental workflow. A375 cells were transduced at low MOI, and then treated or not with IFNα for 48 hrs. RNA was extracted and Peptide_ADARreporter RNA species were amplified and sequenced by NGS. (C) Dot plot of A-to-I PepTile library effect on A-to-I editing with or without IFNα treatment. Red line is the mean A-to-I editing of all the 8088 peptides (>100 read counts) no treatment: 25.75% IFNα: 37.6%. (D) Dot plot of A-to-I PepTile library fitness effect upon IFNα for 48 hrs.
# FIGS. 17A-17F show A-to-I RNA Editing PiTile (REPTILE) screen in A375. (A) A-to-I RNA Editing PiTile (REPTILE) library design consist of fragmentation of all known ADAR1, ADAR2 interactors and all human double stranded RNA-binding protein into 40 amino acid long peptide. This library was then cloned into a lentivirus vector that also encode a DNA-encoded RNA loop reporter (A-to-I Rep) that is edited by ADAR proteins in cells at the RNA level. When the construct is expressed, the RNA loop gets edited on a single Adenosine, while the 40-mer peptide get expressed at the protein level. Then we can measure the impact of the peptide expression on the editing rate of the RNA loop reporter by sequencing (NGS and Sanger). (B) Experimental workflow of REPTILE screen in A375 cell line. Cells were transduced with the REPTILE library, and then treated for 48 hours with IFNα. Following the treatment, RNA was harvested, converted into cDNA and amplicon library containing peptide Identity (barcode) linked to the RNA loop reporter were prepared for NGS. (C) Result of the A375 REPTILE screen in the no treatment condition. Each dot represents a unique peptide that is associated with an A-to-I editing rate that was measured on the RNA loop. (D) Result of the A375 REPTILE screen in the IFNα condition. Each dot represents a unique peptide that is associated with an A-to-I editing rate that was measured on the RNA loop. Red line represent the A-to-I editing mean, Dash blue line represent 2 times the standard deviation of the % A-to-I editing across all the datasets. This cutoff was used to defined peptides hits that modulate RNA A-to-I editing. (E) Peptide A-to-I Inhibitor Hits intersection between no treatment (% A-to-I editing<15%) and IFNα (% A-to-I editing<27%) conditions. (F) Peptide A-to-I Enhancers Hits intersection between no treatment (% A-to-I editing>36%) and IFNα (% A-to-I editing>47%) conditions.
# Provided herein is a screening methodology to measure the effect of small peptide on A-to-I RNA editing in situ and screen thousands of peptides in a single experiment. First, a library of peptides with the potential of impairing A-to-I editing was designed and built. ADAR enzymes edit RNA only on double-stranded RNA structures and via ADAR's double stranded RNA-Binding Domain (dsRBD). […] The A-to-I PepTile library is composed of 19 Human proteins having dsRBD and 34 known protein-protein interactors of ADAR1/2. All these proteins were tiled into 40-mer peptides every 4 amino acids (FIG. 12A). To measure A-to-I editing, a biosensor consisting of a 71 bp dsRNA hairpin structure that gets A-to-I edited at a rate of 25% in A375 melanoma cells, and ~37% upon IFNα treatment was used. This A-to-I editing reporter is fused with DNA sequence encoding for a peptide from the A-to-I PepTile library. The A-to-I PepTile plasmid pool (10304 elements) was used to produced lentiviruses and transduced A375 cells at a low multiplicity of infection (MOI) (FIG. 12B). A part of the infected cells was treated with IFNα at 6000 U/ml for 48 hours, and then bulk RNA of the basal and treated condition was harvested. RNA was then retrotranscribed into cDNA and sequenced by Next-Generation Sequencing (NGS). […]
# A375 cells = assay: A-to-I PepTile screen: fitness effect upon IFNα (PepTile abundance untreated vs treated); format: cell-based, human
# Source text: as §1
# Provided herein is a screening methodology to measure the effect of small peptide on A-to-I RNA editing in situ and screen thousands of peptides in a single experiment. First, a library of peptides with the potential of impairing A-to-I editing was designed and built. ADAR enzymes edit RNA only on double-stranded RNA structures and via ADAR's double stranded RNA-Binding Domain (dsRBD). […] The A-to-I PepTile library is composed of 19 Human proteins having dsRBD and 34 known protein-protein interactors of ADAR1/2. All these proteins were tiled into 40-mer peptides every 4 amino acids (FIG. 12A). To measure A-to-I editing, a biosensor consisting of a 71 bp dsRNA hairpin structure that gets A-to-I edited at a rate of 25% in A375 melanoma cells, and ~37% upon IFNα treatment was used. This A-to-I editing reporter is fused with DNA sequence encoding for a peptide from the A-to-I PepTile library. The A-to-I PepTile plasmid pool (10304 elements) was used to produced lentiviruses and transduced A375 cells at a low multiplicity of infection (MOI) (FIG. 12B). A part of the infected cells was treated with IFNα at 6000 U/ml for 48 hours, and then bulk RNA of the basal and treated condition was harvested. RNA was then retrotranscribed into cDNA and sequenced by Next-Generation Sequencing (NGS). With the sequencing data, the A-to-I editing percentage of the RNA reporter for each PepTile is calculated since both elements are encoded on the same transcript. Moreover, with this screen one can also measure the abundance of the PepTiles between the untreated and treated conditions and determine Fitness score associated to every PepTile. To ensure a robust and more accurate A-to-I editing % estimation a cut-off of 100 read counts was set for each PepTile. […] SEQ ID NOs: 2125-2147 are A-to-I peptide inhibitors and SEQ ID NOs: 2148-2210 are A-to-I activators. In addition, 117 PepTiles were identified that either synergize (SEQ ID NOs: 2211-2243) or protect (SEQ ID NOs: 2244-2327) to IFNα-induced cell death (FIG. 12D and Table 5). These PepTiles are potential new therapeutic agents that can modulate the Interferon pathway. They may be beneficial in treating inflammatory conditions and may also enhance the effectiveness of cancer immunotherapy through synergistic effects.
# [2] = IFNα 6000 U/ml for 48 hours vs untreated
# [3] = A375, PepTile abundance upon IFNα treatment, negative = synthetic lethal, positive = protector
Sequence,% A-to-I editing (IFNα) [1] [%],% A-to-I editing (Basal) [1] [%],Fitness Score IFNα (A375 cells; [2]),Fitness Score IFNα (A375 cells; [3])
MAGPLGPGDAVRRVLECVATGTLLTDGPGLQDPCERDQTDA [ZFR2_207],51.31,45.30,1.51,–
MAPVAAHTVTAAYAPAAATVAVARPAPVAVAAAATAAAYGG [ZFR_18],49.47,37.25,1.04,–
MASLQISPQPRPWRPLPAQAQSAWGPAPAPATYRAEGGWPQ [ADAD2_6],48.57,40.89,3.12,3.12
MAVEITGAGPGASSVCNSAPGSGPSSPNSSHSTIAENGFTG [HDAC5_75],55.71,40.79,0.76,–
MAVRRVLECVATGTLLTDGPGLQDPCERDQTDALEPMTLQE [ZFR2_209],50.31,39.66,0.22,–
MCLSSHFQELSIYQDQEQRILKFLEELGEGKATTAHDLSGK [ADAR_32],48.60,38.66,-0.47,–
MCSFNDPNAKEMHLKGRRHRLQYKKKVNPDLQVEVKPSIRA [ZFR_148],48.58,37.77,-1.00,–
MCYYVFGDLSGGCESYLVNLSLNDNDGSSGASDQDTLAPLP [DVL2_126],54.28,43.60,0.54,–
MDTLDPELFVECTECGRKMHQICVLHHEIIWPAGFVCDGCL [EP300_310],26.86,14.29,-1.83,–
MDTVISLLTGLSDSQVRAFRHTSTLAAMKLMTALVNVALNL [STAG1_51],80.32,74.10,-0.15,–
MECMHKLGNSCEFRLLSKEGPAHEPKFQYCVAVGAQTFPSV [ADAR_156],20.83,13.60,0.35,–
MEPAKGGEKLQIKKTVSFHLYISTAPCGDGALFDKSCSDRA [ADAR_236],55.48,39.57,-1.07,–
MESTIVEPKQNENRLSDTKPNDNKQNNGRSETTKSRPETPK [NIPBL_167],52.90,39.35,1.11,–
METVSSNSSNNTGNSTTETSSTLEVRTQGPILTASGKNPVM [STRBP_120],22.73,10.91,0.07,–
MFKKRAVEITGAGPGASSVCNSAPGSGPSSPNSSHSTIAEN [HDAC5_74],55.72,38.94,0.29,–
MFPAVCAHSKKQGKQEAADAALRVLIGENEKAERMGFTEVT [ADAR_193],22.77,11.47,0.57,–
MFSSRGINFRTRHLMQDLRMLMPHSKADTKMDRKDKLFVIN [BRIX1_17],47.02,38.66,1.21,–
MGELSSADEKRYRALKRTAERELLMNADVICCTCVGAGDPR [UPF1_147],24.68,13.30,-0.63,–
MGFRGNSGGDYRGPSGGYRGSGGFQRGGGRGAYGTGYFGQG [DHX9_307],47.59,40.04,1.50,–
MGLSPSIDTLDHIRALDRLQEVPHEGPMCDLLWSDPDDRGG [PPP2CB_43],62.33,46.04,-0.38,–
MGPGDAVRRVLECVATGTLLTDGPGLQDPCERDQTDALEPM [ZFR2_208],51.37,37.66,0.67,–
MGRRSSGGGRYRNRSPSDSDMEDYSPPPSLSEVARKMKKKE [NIPBL_285],47.59,42.29,1.59,–
MIIYDEYMMDTVISLLTGLSDSQVRAFRHTSTLAAMKLMTA [STAG1_49],48.18,44.91,0.55,–
MIQDPAQAEAYTIYWLVAALAPLVAAPPRPSQGRLAGREWS [UBE2I_32],47.26,44.43,-0.02,–
MKECVDHLSRDEDEEKLVASLWGAERCLRVLESVTVHNPEN [WAPAL_208],50.33,50.48,1.55,–
MKEHMDAINHDTKELEKMTNRQGMLLKKKEECMKKIRELGS [SMC3_228],23.22,13.27,-3.54,-3.54
MKKNIAAERKEAKQEKEEADRYQRLKDEVVRAQVQLQLFKL [SMC1A_48],26.12,11.19,1.61,–
MKTPIQVLHEYGMKTKNIPVYECERSDVQIHVPTFTFRVTV [PRKRA_9],48.95,43.02,-0.21,–
MKVPAVPVQWGNCGDTGTRSAGPLRRNYNFIAAVVEKVAPS [HTRA4_36],25.56,12.55,0.18,–
MLANFGPRINDIKRIIQSREREMKDLKEKMNQVEDEVFEEF [SMC1A_186],56.93,55.39,0.69,–
